Laboratory results taken from US20250032423A1, “HERBAL BIOACTIVES BASED IMMUNOSTIMULANT FORMULATION FOR POULTRY BIRDS & CATTLE AND PREPARATION THEREOF” (Edhas Technologies Inc., priority 2023, published 2025).

Columns and labels:
[1] = system: Pseudomonas aeruginosa; experiment: MIC and fractional inhibitory concentration index (FICI) against Pseudomonas aeruginosa
[2] = DPPH radical scavenging assay
[3] = ABTS radical scavenging assay

COc1cc(/C=C/C(=O)CC(=O)/C=C/c2ccc(O)c(OC)c2)ccc1O [Curcumin]
MIC [1]: 8100 µg/mL

O=C1O[C@H]([C@@H](O)CO)C(O)=C1O [Ascorbic acid]
IC50 (DPPH) [2]: 10 ppm | % Inhibition (DPPH scavenging) ([2]; 10 ppm): 58.80% | % Inhibition (DPPH scavenging) ([2]; 25 ppm): 64.65% | % Inhibition (DPPH scavenging) ([2]; 50 ppm): 66.42% | % Inhibition (DPPH scavenging) ([2]; 100 ppm): 71.18% | % Inhibition (DPPH scavenging) ([2]; 250 ppm): 87.60% | % Inhibition (DPPH scavenging) ([2]; 500 ppm): 90.65%

C=CCc1ccc(O)c(OC)c1 [Eugenol]
MIC [1]: 10100 µg/mL

Cc1c(C)c2c(c(C)c1O)CCC(C)(C(=O)O)O2 (stereo not drawn) [Trolox]
IC50 (ABTS) [3]: 10 ppm | % Inhibition (ABTS scavenging) ([3]; 10 ppm): 54.48% | % Inhibition (ABTS scavenging) ([3]; 25 ppm): 63.01% | % Inhibition (ABTS scavenging) ([3]; 50 ppm): 73.1% | % Inhibition (ABTS scavenging) ([3]; 100 ppm): 86.71% | % Inhibition (ABTS scavenging) ([3]; 250 ppm): 89.12% | % Inhibition (ABTS scavenging) ([3]; 500 ppm): 94.08% | % Inhibition (ABTS scavenging) ([3]; 1000 ppm): 99.24%

Cc1ccc(C(C)C)c(O)c1 [Thymol]
MIC [1]: 9200 µg/mL
